The target in series [1] is T1, CAIX-expressing human HT-29 colorectal cancer cells (Homo sapiens, UniProt Q16790).
T1 construct: CAIX-expressing human HT-29 colorectal cancer cells; host or cells: HT-29 human colorectal cancer cells
The experiment in a line: FACS binding assay (IC50 determination, competition with tracer 3BP-2776 or 3BP-4149). To be noted: FACS binding assay, HT-29 cells, 4° C., 1 hour, read-out: pIC50 category (activity) (converted). Put shortly: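 HT-29 cells in FACS buffer (PBS, 1% FCS) at 500.000 cells/ml were exposed to compounds competing with a labelled tracer, with biotinylated compounds detected by 1 μg/mL APC-streptavidin for 30 min on ice. APC/Cy5 median fluorescence was read by flow cytometry and IC50 derived by 4PL fit.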
Background: Flow cytometry measures light scatter and fluorescence of single cells or particles in a stream.

The target in series [2] is T2, human carbonic anhydrase IX (hCAIX-Fc) (Homo sapiens, UniProt Q16790).
T2 construct: purchased SinoBliological (Sino Biological) 10107-H02H
The experiment in a line: Surface plasmon resonance assay with hCAIX-Fc. To be noted: 25° C.; for t1/2 category (activity): SPR dissociation half-life, hCAIX-Fc; for Kd: SPR, hCAIX-Fc captured, read-out: pKD category (activity) (converted). Format: binding. (SPR reads the build-up and loss of mass on a sensor chip optically.)

For series [3] the following is noted: mouse, plasma, 24 h.
A further series has as its target T3, CAIV (hCAIV-bio) (Homo sapiens, UniProt P22748).
T3 construct: purchased SinoBliological (Sino Biological) 10472-1H081H
The experiment in a line: SPR selectivity assay with biotinylated CAIV. Format: binding. To be noted: SPR, biotinylated CAIV; read-out: pKD category (affinity) CAIV (converted). On the procedure:
(§1) In order to test selectivity of CAIX-binding peptides toward CAIV (SinoBliological, Cat #10472-1H081H), CAXII (SinoBliological, Cat #10617-H08H or CAXIV (SinoBliological, Cat #10458-H08H), SPR assays were performed analog to the assay described above but with a different target capture procedure. For immobilization, the carbonic anhydrases were biotinylated and capture on the SPR chip using the Biotin CAPture Kit (cytiva) according to the manufacturer instructions using HBSTE, 0.1% as Running Buffer.
(§2) Table 13 describes the protocol steps for biotinylated target capturing and assessment of the binding kinetics.

The target in a further series is T4, CAXII (hCAXII-bio) (Homo sapiens, UniProt O43570).
T4 construct: purchased SinoBliological (Sino Biological) 10617-H08H
The experiment in a line: SPR selectivity assay with biotinylated CAXII. Format: binding. To be noted: SPR, biotinylated CAXII; read-out: pKD category (affinity) CAXII (converted). The procedure:
as §1, §2

In a further series the target is T5, CAXIV (hCAXIV-bio) (Homo sapiens, UniProt Q9ULX7).
T5 construct: purchased SinoBliological (Sino Biological) 10458-H08H
The experiment in a line: SPR selectivity assay with biotinylated CAXIV. The series is classed as binding. To be noted: SPR, biotinylated CAXIV; read-out: pKD category (affinity) CAXIV (converted). The procedure: as §1, §2

A short description of series [4]: Plasma stability assay, mouse plasma. To be noted: mouse plasma, 37°C, 24 h.
The mark [5] stands for this setting: competition with tracer 3BP-2776 (10 nM, biotin-labeled).
[6] abbreviates: competition with tracer 3BP-4149 (3 nM, Cy5-labeled).

Like-named read-outs stand apart in the source and are kept apart here. Starred links: 1 amine or outer side, 2 acyl side, 3 side chain; linkers in the order of their positions; H or OH if unused. Positions of bridges follow the written chain, without caps; N, C: chain ends. Non-standard residues stand in square brackets, D forms with d. Residues, ends and D or L forms follow the SMILES beside them. *: point of attachment. Phe(3-NHCO(CH2)3SO2NH2) = N[C@@H](Cc1cccc(NC(=O)CCCS(N)(=O)=O)c1)C(=O)O; X4 = CS(=O)(=O)CC(=O)Nc1cccc(C[C@H](N[*:1])C(=O)[*:2])c1; DOTA = O=C(O)CN1CCN(CC(=O)O)CCN(CC(=O)*)CCN(CC(=O)O)CC1; X5 = O=C(O)CCCC(=O)Nc1cccc(C[C@H](N[*:1])C(=O)[*:2])c1; X6 = O=C(O)CCC(=O)Nc1cccc(C[C@H](N[*:1])C(=O)[*:2])c1; mXylylene = c1cc(C[*:1])cc(C[*:2])c1; X2 = O=C(CN1CCC(N[*:1])CC1)[*:2]; Dap = NC[C@H](N)C(=O)O

T4 sequence (O43570 25-354): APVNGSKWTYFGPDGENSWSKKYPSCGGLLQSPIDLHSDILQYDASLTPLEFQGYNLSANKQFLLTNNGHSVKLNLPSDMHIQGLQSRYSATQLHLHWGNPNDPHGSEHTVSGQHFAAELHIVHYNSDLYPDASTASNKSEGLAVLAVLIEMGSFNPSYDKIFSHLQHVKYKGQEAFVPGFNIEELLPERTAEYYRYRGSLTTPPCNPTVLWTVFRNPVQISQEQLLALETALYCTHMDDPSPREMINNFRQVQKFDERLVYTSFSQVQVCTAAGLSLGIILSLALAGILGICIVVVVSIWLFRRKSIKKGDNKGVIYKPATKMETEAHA
T5 sequence (Q9ULX7 16-337): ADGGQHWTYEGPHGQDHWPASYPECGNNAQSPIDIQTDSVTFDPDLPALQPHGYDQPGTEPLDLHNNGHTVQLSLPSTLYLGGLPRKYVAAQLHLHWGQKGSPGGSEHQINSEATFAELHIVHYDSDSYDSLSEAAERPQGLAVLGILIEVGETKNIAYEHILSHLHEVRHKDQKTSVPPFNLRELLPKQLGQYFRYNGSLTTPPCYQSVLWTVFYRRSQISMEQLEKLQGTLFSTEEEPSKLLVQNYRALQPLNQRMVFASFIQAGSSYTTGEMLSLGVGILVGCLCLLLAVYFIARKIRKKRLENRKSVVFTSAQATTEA
T3 sequence (P22748 19-284): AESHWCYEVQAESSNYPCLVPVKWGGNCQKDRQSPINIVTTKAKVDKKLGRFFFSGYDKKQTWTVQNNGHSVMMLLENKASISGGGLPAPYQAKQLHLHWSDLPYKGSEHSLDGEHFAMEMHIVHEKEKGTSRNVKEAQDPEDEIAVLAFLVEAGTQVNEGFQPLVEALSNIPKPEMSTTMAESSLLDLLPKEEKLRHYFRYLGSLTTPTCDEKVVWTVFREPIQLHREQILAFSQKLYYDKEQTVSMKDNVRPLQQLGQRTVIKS

As to `CC(C)C[C@@H]1NC(=O)[C@H](Cc2cccc(NC(=O)CS(C)(=O)=O)c2)NC(=O)[C@H](CC(=O)O)NC(=O)[C@H]2CCCN2C(=O)[C@H](CCC(=O)O)NC(=O)[C@@H](NC(=O)[C@H](Cc2ccc(O)cc2)NC(=O)[C@@H](NC(=O)CN2CCC(NC(=O)CN3CCN(CC(=O)O)CCN(CC(=O)O)CCN(CC(=O)O)CC3)CC2)C(C)C)CSCc2cccc(c2)CSC[C@@H](C(N)=O)NC(=O)[C@H](CO)NC(=O)[C@H](Cc2c[nH]c3ccccc23)NC(=O)[C@H]([C@@H](C)O)NC1=O` [3BP-4242] ({DOTA}-[X2]VYCE[dP]D[X4]LTWSC-NH2; linker 4-13 via mXylylene), the IC50 in series [1] (setting [5]) is less than 0.01 µM. Moreover, in series [2], the “t1/2 category (activity)” value is “B (t1/2 between 5.1 and 15.0 minutes)”; the Kd is less than 0.01 µM. Further, in series [3], the “% intact compound remaining (incubation time)” value (“% intact compound remaining” for short) was more than 95%.
`CC(C)C[C@@H]1NC(=O)[C@H](Cc2cccc(NC(=O)CCCS(N)(=O)=O)c2)NC(=O)[C@H](CC(=O)O)NC(=O)[C@H]2CCCN2C(=O)[C@H](CCC(=O)O)NC(=O)[C@@H](NC(=O)[C@H](Cc2ccc(O)cc2)NC(=O)[C@@H](NC(=O)CN2CCC(NC(=O)CN3CCN(CC(=O)O)CCN(CC(=O)O)CCN(CC(=O)O)CC3)CC2)C(C)C)CSCc2cccc(c2)CSC[C@@H](C(N)=O)NC(=O)[C@H](CO)NC(=O)[C@H](Cc2c[nH]c3ccccc23)NC(=O)[C@H]([C@@H](C)O)NC1=O` [3BP-4369] ({DOTA}-[X2]VYCE[dP]D[Phe(3-NHCO(CH2)3SO2NH2)]LTWSC-NH2; linker 4-13 via mXylylene): the IC50 in series [1] (setting [6]) was less than 0.01 µM. For the same molecule, in series [2], the “t1/2 category (activity)” value is “A (t1/2>15.0 minutes)” and the Kd was less than 0.01 µM. Moreover, in series [3], the “% intact compound remaining” value is recorded as more than 95%.
As to `CC(C)C[C@@H]1NC(=O)[C@H](Cc2cccc(NC(=O)CCC(=O)O)c2)NC(=O)[C@H](CC(=O)O)NC(=O)[C@H]2CCCN2C(=O)[C@H](CCC(=O)O)NC(=O)[C@@H](NC(=O)[C@H](Cc2ccc(O)cc2)NC(=O)[C@@H](NC(=O)CN2CCC(NC(=O)CN3CCN(CC(=O)O)CCN(CC(=O)O)CCN(CC(=O)O)CC3)CC2)C(C)C)CSCc2cccc(c2)CSC[C@@H](C(N)=O)NC(=O)[C@H](CO)NC(=O)[C@H](Cc2c[nH]c3ccccc23)NC(=O)[C@H]([C@@H](C)O)NC1=O` [3BP-4237, DOTA-APAc-Val-Tyr-[Cys(3MeBn)-Glu-pro-Asp-Af3(HO-Succinyl)-Leu-Thr-Trp-Ser-Cys]-NH2] ({DOTA}-[X2]VYCE[dP]D[X6]LTWSC-NH2; linker 4-13 via mXylylene), the IC50 in series [1] (setting [5]) is less than 0.01 µM. In addition, in series [2], the “t1/2 category (activity)” value is “A (t1/2>15.0 minutes)” and the Kd is less than 0.01 µM. Moreover, the “% intact compound remaining” value in series [3] was more than 95%.
With `CC(C)C[C@@H]1NC(=O)[C@H](Cc2cccc(NC(=O)CCCC(=O)O)c2)NC(=O)[C@H](CC(=O)O)NC(=O)[C@H]2CCCN2C(=O)[C@H](CCC(=O)O)NC(=O)[C@@H](NC(=O)[C@H](Cc2ccc(O)cc2)NC(=O)[C@@H](NC(=O)CN2CCC(NC(=O)CN3CCN(CC(=O)O)CCN(CC(=O)O)CCN(CC(=O)O)CC3)CC2)C(C)C)CSCc2cccc(c2)CSC[C@@H](C(N)=O)NC(=O)[C@H](CO)NC(=O)[C@H](Cc2c[nH]c3ccccc23)NC(=O)[C@H]([C@@H](C)O)NC1=O` [3BP-4367] ({DOTA}-[X2]VYCE[dP]D[X5]LTWSC-NH2; linker 4-13 via mXylylene), the IC50 in series [1] (setting [6]) is less than 0.01 µM. Also, in series [2], the “t1/2 category (activity)” value was “A (t1/2>15.0 minutes)” and the Kd was less than 0.01 µM. The “% intact compound remaining” value in series [3] is given as more than 95%.
Take `CC(C)C[C@@H]1NC(=O)[C@H](Cc2c[nH]c3ccccc23)NC(=O)[C@H](CC(=O)O)NC(=O)[C@H]2CCCN2C(=O)[C@H](CCC(=O)O)NC(=O)[C@@H]2CSCc3cccc(c3)CSC[C@@H](C(N)=O)NC(=O)[C@H](CNC(=O)C[C@H](NC(=O)[C@@H](NC(=O)CN3CCC(NC(=O)CN4CCN(CC(=O)O)CCN(CC(=O)O)CCN(CC(=O)O)CC4)CC3)C(C)C)C(=O)N2)NC(=O)[C@H](Cc2c[nH]c3ccccc23)NC(=O)[C@H]([C@@H](C)O)NC1=O` [3BP-4174, DOTA-APAc-Val-{Asp-[Cys(3MeBn)-Glu-pro-Asp-Trp-Leu-Thr-Trp-Dap}-Cys]-NH2] ({DOTA}-[X2]VDCE[dP]DWLTW[Dap]C-NH2; lactam 3-12; linker 4-13 via mXylylene): the IC50 in series [1] (setting [5]) was less than 0.01 µM. Moreover, in series [2], the “t1/2 category (activity)” value was “A (t1/2>15.0 minutes)”. In addition, the Kd in series [2] was less than 0.01 µM; on CAIV (hCAIV-bio), more than 1 µM; on CAXII (hCAXII-bio), more than 1 µM; at CAXIV (hCAXIV-bio), more than 1 µM. Further, the “% intact compound remaining” value in series [4] is more than 95%.
